Assay results from ChEMBL document CHEMBL3507680, “University of Dundee, Gates Library screen for HepG2 cell viability”.

Assay: Human HepG2 cell viability assay in 384 well format
Type: toxicity, cell-based
Design: dose 125 nL, time 70.5 hour; concentration not given beside the values
Settings: HepG2 cells, read-out: Inhibition

Compound | cytotoxicity at 70.5 h
Cc1cc2c(cc1C)C(NC1CC1)CCCO2 (stereo not drawn) | 0.0987%
CCN1CCN(CCNc2nc3ccc(C)cc3c(=O)n2C)CC1 | 11.8%
O=C(NCCNc1ncccn1)C1CC(=O)N(CC(F)(F)F)C1 (stereo not drawn) | -14.3%
CC(C(=O)NCc1cccs1)N1CCN(Cc2nccn2C)CC1 (stereo not drawn) | 13.2%
CCN(CC)S(=O)(=O)N1CC[C@H](c2ccccc2)[C@@H]2[C@H]1CCCCN2C | -0.108%
O=C(CCn1cc(Cl)cn1)Nc1ccc2c(c1)OCCO2 | -8.19%
Cc1noc(-c2ccnc(N3CCCN(C4CCOCC4)CC3)c2)n1 | -3.75%
CC(C)(NS(C)(=O)=O)c1nc(-c2ccc(F)c(F)c2)no1 | -5.95%
O=C(Cc1ccccc1)N1CCC2(CC(=O)N(c3cccc(F)c3)C2)C1 (stereo not drawn) | -4.78%
c1ccc2[nH]c(C3CCN(Cc4nc(C5CC5)no4)CC3)cc2c1 | -1.32%
CN(CCCc1cnn(C)c1)Cc1cc2n(n1)CCCN(C)C2 | -7.1%
COC(=O)CCN(CC1CCOC1)C1CC1 (stereo not drawn) | 0.428%
CCOCCC(=O)N1C[C@H]2CC[C@@H]1CN(Cc1ccncc1)C2 | -11.6%
Cc1cccc(CN2CCOCC3(CCN(C4CCOCC4)C3)C2)c1 (stereo not drawn) | 9.31%
O=C(O)[C@@H]1CN(C(=O)CSCCN2CCCC2)C[C@H]1c1ccccc1 | 1.16%
CC[C@@H]1N(Cc2ccc(F)cc2)CCC[C@]12CCC(=O)N2C | -9.15%
COCC1CN(C(=O)c2cccc(C)n2)Cc2nccn2C1 (stereo not drawn) | -10.2%
CN(C)c1cc(N(C)Cc2cc(C(C)(C)C)n[nH]2)ncn1 | -2.08%
CN(Cc1cnn(C)c1)C(CO)c1cccc(Br)c1 (stereo not drawn) | -16.5%
CN(C)C(=O)N1CC[C@H]2[C@H]1CCN2c1nncs1 | -6.13%
Cn1cc(CN(C/C=C/c2ccccc2)C2CC2)cn1 | -8.38%
O=C(CCC(F)(F)F)NCC1CCCS1 (stereo not drawn) | -6.67%
Cc1cc(C(=O)N2CCO[C@H]3[C@H](Oc4ccccn4)CC[C@@H]32)c(C)[nH]1 | -8.01%

Compound | cytotoxicity at 70.5 h
Cc1c(Cl)cccc1NC(=O)N1CCN(Cc2ccccn2)CC1 | -3.15%
CCc1nc(C2CCCN(C(=O)c3ccc(OC(C)C)nc3)C2)no1 (stereo not drawn) | 17.6%
CN(C)c1ncc(-c2ccc(C(N)=O)cc2)c(C2CCNC2)n1 (stereo not drawn) | -2.25%
Cc1ccc(CNC(C)c2nnc3n2CCCC3)o1 (stereo not drawn) | -8.48%
CCCC(C)NC1CCN(c2ccc(-n3ccnc3C)cc2)CC1 (stereo not drawn) | -2.41%
Cc1nc(C2CCCN(C(=O)Cn3ccccc3=O)C2)sc1C (stereo not drawn) | -2.49%
O=C(c1ccccn1)N1C[C@@H]2CC[C@H](C1)N(C(=O)CCc1cccs1)C2 | -5.4%
COc1cc2c(cc1OC)CN(C(=O)Cn1nc(C)cc1C)CC2 | -5.35%
CCc1nc(CN2CCCC2c2c(C)nn(C)c2OC)no1 (stereo not drawn) | -3.81%
Cc1ccc2oc(C(=O)N3CCCC(n4ccnc4C)C3)cc2n1 (stereo not drawn) | 0.879%
Cn1cc(CC2CC(=O)N(Cc3ccc(Cl)cc3)C2=O)cn1 (stereo not drawn) | 24.4%
COCCC(C)NC(=O)N1CCC(n2ccc(C(F)(F)F)n2)CC1 (stereo not drawn) | -98.6%
CNC(=O)CCOC(=O)c1cccc(-n2ccc(C(F)(F)F)n2)c1 | 0.427%
Cc1nn(C)c(N(C)C)c1CNCCS(C)(=O)=O | 20.1%
CC(C)(C)n1ncc2c1NC(=O)CSC2c1ccsc1 (stereo not drawn) | -13.1%
CC(C)(C)c1nnc(CN(Cc2cccs2)CC2CCCO2)o1 (stereo not drawn) | -1.38%
CCOC1CCC2(CCN(C(=O)c3csnn3)CC2)c2ccccc21 (stereo not drawn) | 36.5%
O=C(Nc1ccccc1Cn1cccn1)N1CCCC(N2CCCC2)C1 (stereo not drawn) | 16.1%
CC(C)=CCN1C(=O)[C@H]2CC[C@@H]1CN(C(=O)CCc1nc(Cl)n[nH]1)C2 | -14.8%
O=C(O)CCc1cc2n(n1)CCN(Cc1ccc3[nH]ccc3c1)C2 | -2.66%
CNC(=O)CSC(C)c1ccc(Br)cc1 (stereo not drawn) | 2.63%
Oc1nc(N2CCOCC2)nc2c1CCN(Cc1ccccc1)CC2 | -1.05%
COc1cc(F)c(S(=O)(=O)NCc2ccnc(N(C)C)n2)cc1OC | -8.38%

Compound | cytotoxicity at 70.5 h
CN1CCCCC1C(=O)N1CCN(c2ccccc2C#N)CC1 (stereo not drawn) | -2.64%
COCc1csc(NC(=O)NCc2ccsc2)n1 | -4.84%
Cc1cnn(CC2CCCN2CC(=O)Nc2nc(C)cs2)c1 (stereo not drawn) | 1.41%
O=C(C1CCOC1)N1CCN(CC(F)(F)F)c2ccccc21 (stereo not drawn) | -5.62%
O=C(COCc1ccccc1Cl)N1CCN(c2ncccn2)CC1 | 6.02%
CCCNC(=O)Cn1cc(-c2ccccc2)cn1 | 1.15%
CC(C)c1noc(CN2CCC(c3nc4cc(Cl)ccc4o3)CC2)n1 | -19.1%
COCC1CN(CC2CCOCC2)Cc2cn(CC3CCCC3)nc21 (stereo not drawn) | -7.67%
CN1CCC(c2cncc(N(C)C)n2)CC1 | -4.58%
CC(=O)N1CCc2ccc(NC(=O)c3cn(C)nn3)cc2C1 | -5.41%
O=C(c1csc(-c2cccs2)n1)N1CCN2CCCCC2C1 (stereo not drawn) | -2.54%
Cc1[nH]c(-c2ccccc2)nc1C(=O)N1CCC(O)(CO)CC1 | 17.9%
CNS(=O)(=O)c1cccc(C(C)NCc2ccc(F)cc2F)c1 (stereo not drawn) | -9.82%
CN1CCCC2(CCN(c3cccc(C#N)n3)C2)C1=O (stereo not drawn) | -8.81%
Cc1cc(=O)n(CCNS(=O)(=O)c2ccccc2)cn1 | -1.2%
CN(C)CCNC(=O)CCC1CCN(C(=O)c2ccc(O)cn2)CC1 | -6.92%
COc1cccc(-c2cnc(CNC(C)(C)c3nc(C)cs3)o2)c1 | -4.32%
COC1CCN(C(=O)CCn2cccn2)CC1 | -8.03%
CC(C)c1nn(C)c(N2CCOCC2)c1CNCCS(C)(=O)=O | 3.3%
CCc1nnc2n1CCN(CCS(=O)(=O)c1ccccc1)C2 | -11.4%
Cn1cc(C[C@H]2[C@H](O)CCN2CC2CCOCC2)cn1 | -6.28%
CN(CCO)C[C@@H]1CN(C(=O)Cc2ccc3ccccc3c2)C[C@@H]1CO | -4.17%
Cc1ccc2cc(C(=O)N3CCN(S(C)(=O)=O)CC3)[nH]c2c1 | 12.7%

Compound | cytotoxicity at 70.5 h
Cc1cnc(N2CCC(OCCN3CCCCC3)C2)nc1C (stereo not drawn) | -4.38%
NS(=O)(=O)CCNC(=O)C1(c2ccccc2)CC1 | -1.21%
CC(=O)c1ccc(S(=O)(=O)N2CCC(c3n[nH]c(C)n3)CC2)cc1 | 24.3%
Cc1cc(CN2C[C@H]3CCC[C@@]3(COCC3CCOCC3)C2)no1 | 0.596%
CNC(=O)[C@@H]1CCO[C@@H]2CCN(CCc3ccccc3)C[C@H]21 | -3.11%
COCCNC(=O)Cn1cc2c(n1)c(C)nn2C | -9.77%
Cc1cc2ncc(CN(C)C)c(C3CCN(C)CC3)n2n1 | 13.7%
CC(C)NC(=O)N1CCC2(CC(C(=O)NCc3cccnc3)=NO2)C1 (stereo not drawn) | -11.9%
CC(c1nc(C2CC2)no1)N1CCN(Cc2ccsc2)CC1 (stereo not drawn) | -12.3%
COCc1noc(Cn2c(C)cc(C(F)(F)F)cc2=O)n1 | -10.7%
CCN(Cc1ccco1)C(C)c1nc(C(C)(C)C)no1 (stereo not drawn) | -3.44%
CC1(c2ncc(CN3CCOCC3)cn2)CCCCO1 (stereo not drawn) | -1.05%
COCC1(NC(=O)C(c2ccc(F)cc2)N(C)C)CCCC1 (stereo not drawn) | 7.27%
Cc1cc(CN2CC[C@H]3C[C@H](C(=O)Nc4cccnc4C)O[C@@H]3C2)no1 | 12.4%
Cc1nc(CN(C)C2CCN(CC3CCCC3)C2)no1 (stereo not drawn) | -1.44%
O=C1COC2(CCN(C(=O)c3ccoc3)CC2)CN1Cc1ccccn1 | -0.827%
N#CC1(NC(=O)CNCCn2cccn2)CCCCC1 | -1.06%
c1ccc(-c2nc(CN3CCCC3Cn3cncn3)co2)cc1 (stereo not drawn) | -7.46%
CC(C)NC(=O)N1CCCC2(CCN(c3ccccc3)C2=O)C1 (stereo not drawn) | -7.73%
Cc1nc(C)n(CC2CCCN2Cc2nc3ccccc3s2)n1 (stereo not drawn) | -5.56%
CC(C)CC(O)C1CCN(C(=O)c2coc(CN3CCOCC3)c2)CC1 (stereo not drawn) | -7.32%
CN(CC(=O)N1CCCN(Cc2cscn2)CC1)c1cnccn1 | -5.45%
Cc1cnn(C2CCCN(C(=O)c3cc(-c4ccccc4C)n[nH]3)C2)c1 (stereo not drawn) | 9.61%

Compound | cytotoxicity at 70.5 h
Cc1cccnc1CNCC1(O)CCCN(CC2CCC2)C1=O (stereo not drawn) | 2.29%
CC(C)N(C)C(=O)c1coc(CN2CCN(c3ccccc3F)CC2)n1 | -3.77%
Cc1[nH]ncc1C(=O)N1CCCC(c2cc(C(F)(F)F)[nH]n2)C1 (stereo not drawn) | 5.58%
CS(=O)(=O)Cc1ccc(Cl)cc1NCc1cccc(F)c1F | 2.24%
Cc1cnc(CN(C)C2CCN(Cc3sc(C)nc3C)C2)o1 (stereo not drawn) | 29.7%
O=C(c1ccccc1)N1CC[C@H]2C[C@@H](c3nnc(C4CC4)o3)O[C@@H]2C1 | -4.88%
Cc1nn(CC(O)CN2CCc3ccccc3C2)c(=O)c2ccccc12 (stereo not drawn) | -17.4%
COc1ccc(C2CNCCN2C(=O)c2nccc3ccccc23)cc1 (stereo not drawn) | 5.97%
CCCN(C(=O)c1cnns1)C1CCCN(Cc2ccccc2)C1 (stereo not drawn) | -7.29%
CNC(=O)N1CCC2(CC1)CN(C)c1ccc(F)cc12 | 2.16%
NCCO[C@H]1C[C@@H](O)C12CCN(C(=O)CCOc1ccccc1)CC2 | -0.434%
CC(C)n1ccc(-c2cc(C(=O)N3CCCC3)c3ccccn23)n1 | 39.5%
O=C(c1ccco1)N1CC[C@@H](N2CCOCC2)[C@@H]1Cc1ccccc1 | -7.17%
CCCC(O)CN1CC(C)(C)CN(C(=O)c2ccccc2)CC1=O (stereo not drawn) | -10.1%
CN(Cc1cccc(OCCO)c1)Cc1cccc2ncccc12 | 19.3%
CC(C)c1ncc(CN2C[C@@H](CN3CCC(O)CC3)[C@@H](CO)C2)cn1 | 37.8%
Cc1nc2c(c(NCCc3nc(C)c(Cl)s3)n1)CCNCC2 | -11%
COC(=O)c1ccc2c(c1)CCCN2S(=O)(=O)c1cn(C)c(C)n1 | 1.33%
O=C1CC(NS(=O)(=O)c2ccc(Br)cc2)CN1 (stereo not drawn) | -4.25%
Cc1cc(C2CCCN(CC(=O)Nc3nc4c(s3)CCC4)C2)n[nH]1 (stereo not drawn) | 18.9%
CC(C(=O)N1CCCN(c2ccc(C#N)cc2)CC1)n1ccnc1 (stereo not drawn) | -1.24%
